The values that follow come from US12305177B2, “Methods and platforms for sustainable high yield terpenoid production” (Purdue Research Foundation, priority 2019, dated 2025).

The target in one test is T1, A. thaliana Nudx1 (Arabidopsis thaliana, UniProt Q9CA40).
T1 construct: The open reading frames (ORFs) of Arabidopsis Nudix genes were PCR-amplified from cDNA; His8 (N, cleaved yes); made in house; host or cells: E. coli BL21(DE3)
As to the kind of experiment: Phosphatase activity / steady-state kinetics of recombinant AtNudx1 (BIOMOL Green phosphate detection). In kind it is biochemical. The note with it: for Km / kcat: substrate of AtNudx1, 100 mM TAPS pH 8.5, 10 mM MgCl2, 37° C., means ± SD, n = 3. As to the method: (§1) After removal of the cell debris by centrifugation, expressed proteins were purified from the supernatants by immobilized metal-affinity chromatography with HisPur Ni-NTA resin (ThermoFisher Scientific). Pure proteins were eluted with 50 mM Tris-HCL pH 8.0, 0.5 M NaCl buffer supplemented with 250 mM imidazole followed by buffer exchange to 50 mM Tris-HCl pH 8.0 and 0.2 M NaCl for storage. For the crystal screening and steady-state kinetic analysis described below, the N-terminal His8-tags of AtNudx1 and AtNudx3 were removed with thrombin and remaining histidine-tagged protein was removed by passing over HisPur Ni-NTA resin. AtNudx1 and AtNudx3 were further purified by size-exclusion chromatography on a Superdex 200 16/60 column (GE Lifesciences) equilibrated and eluted with 50 mM Tris-HCl pH 8.0 supplemented with 0.2 M NaCl and 2 mM dithiothreitol.
(§2) All enzyme assays described in the present disclosure were performed as follows. Phosphatase activity was monitored at 37° C. using BIOMOL Green reagent (Enzo Life Sciences) to detect and quantify released phosphate at 623 nm using a phosphate standard curve. The optimum pH for activity was determined using a three-component buffer system of 50 mM acetic acid, 50 mM MES, and 100 mM Tris-HCl with 0.1 mM IPP as substrate. Magnesium ion dependence was investigated with 1 mM to 20 mM MgCl2. […] Reactions were initiated by the addition of enzyme and quenched by the addition of BIOMOL Green.
(§3) Controls included assays without enzyme and without substrate. All enzyme assays were performed at an appropriate enzyme concentration so that the reaction velocity was linear and proportional to the enzyme concentration during the incubation time period. Kinetic data was fitted using Prism (GraphPad Software) to the Michaelis-Menten equation to compute KM and kcat. At least triplicate assays were performed for all data points. Resulting Findings and Systems, Methods, and Platforms

The target in a further test is T2, A. thaliana Nudx3 (Arabidopsis thaliana, UniProt Q8L831).
T2 construct: His8 (N, cleaved yes); made in house; host or cells: E. coli BL21(DE3)
T2 sequence (Q8L831 1-772): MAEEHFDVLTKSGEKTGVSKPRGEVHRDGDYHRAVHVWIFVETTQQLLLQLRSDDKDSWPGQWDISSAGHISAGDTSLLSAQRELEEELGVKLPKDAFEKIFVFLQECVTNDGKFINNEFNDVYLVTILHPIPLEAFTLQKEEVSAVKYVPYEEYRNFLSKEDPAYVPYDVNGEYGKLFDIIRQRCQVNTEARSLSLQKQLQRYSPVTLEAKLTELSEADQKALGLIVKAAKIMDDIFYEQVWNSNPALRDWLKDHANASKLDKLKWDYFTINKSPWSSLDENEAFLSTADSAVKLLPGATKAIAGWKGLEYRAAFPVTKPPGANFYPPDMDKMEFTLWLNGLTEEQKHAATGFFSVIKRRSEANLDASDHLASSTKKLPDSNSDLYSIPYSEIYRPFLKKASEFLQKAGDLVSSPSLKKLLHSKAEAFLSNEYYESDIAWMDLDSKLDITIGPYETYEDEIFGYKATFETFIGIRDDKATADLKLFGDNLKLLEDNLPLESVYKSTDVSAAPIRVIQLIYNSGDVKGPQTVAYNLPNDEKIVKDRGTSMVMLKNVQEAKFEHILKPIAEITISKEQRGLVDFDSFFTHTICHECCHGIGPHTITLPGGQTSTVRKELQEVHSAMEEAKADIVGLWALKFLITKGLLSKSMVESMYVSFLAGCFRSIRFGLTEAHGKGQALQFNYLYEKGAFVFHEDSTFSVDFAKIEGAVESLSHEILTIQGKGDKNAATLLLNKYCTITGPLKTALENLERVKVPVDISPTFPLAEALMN
As to the kind of experiment: Phosphatase activity / steady-state kinetics of recombinant AtNudx3 (BIOMOL Green phosphate detection). The note with it: for Km / kcat: substrate of AtNudx3, 100 mM TAPS pH 8.5, 10 mM MgCl2, 37° C., means ± SD, n = 3. In kind it is biochemical. As to the method:
as §1, §2, §3

Another test addresses T3, AtPMK (Arabidopsis thaliana, UniProt Q9C6T1).
T3 sequence (Q9C6T1 1-505): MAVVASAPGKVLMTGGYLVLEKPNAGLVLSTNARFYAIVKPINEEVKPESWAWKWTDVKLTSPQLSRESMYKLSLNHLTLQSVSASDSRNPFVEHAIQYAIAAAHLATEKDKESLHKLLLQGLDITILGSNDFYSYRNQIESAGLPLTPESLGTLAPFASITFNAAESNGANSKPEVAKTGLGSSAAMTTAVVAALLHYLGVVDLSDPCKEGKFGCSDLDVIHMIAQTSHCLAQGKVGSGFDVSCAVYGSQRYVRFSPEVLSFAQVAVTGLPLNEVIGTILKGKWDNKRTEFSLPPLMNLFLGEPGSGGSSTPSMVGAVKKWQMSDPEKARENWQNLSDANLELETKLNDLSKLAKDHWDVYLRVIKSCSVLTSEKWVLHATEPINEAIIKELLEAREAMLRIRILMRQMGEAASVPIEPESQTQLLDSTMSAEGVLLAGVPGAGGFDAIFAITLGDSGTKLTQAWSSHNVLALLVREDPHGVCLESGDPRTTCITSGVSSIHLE
The following applies: substrate of Arabidopsis PMK (AtPMK, At1g31910); previous characterization; cited from earlier work.

Another test has as its system FPP synthase. The note with it: cited from earlier work.

T1 sequence (Q9CA40 whole entry): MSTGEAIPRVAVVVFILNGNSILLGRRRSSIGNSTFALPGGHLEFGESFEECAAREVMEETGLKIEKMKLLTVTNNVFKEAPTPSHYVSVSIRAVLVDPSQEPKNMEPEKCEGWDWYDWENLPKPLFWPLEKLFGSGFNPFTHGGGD

For the compound mevalonate diphosphate [(R)-MVAPP], the “fold less efficient as a substrate (catalytic efficiency)” value on A. thaliana Nudx1 (AtNudx1, compared with IPP, DMAPP, GPP and FPP) was 100 fold. Further, on A. thaliana Nudx1, the Km was found to be 240 ± 60 µM and the catalytic constant (kcat) came out at 0.51 ± 0.06 s⁻¹. Also, at A. thaliana Nudx3, the Km was determined as 125 ± 36 µM and the turnover number (kcat) was 1.5 ± 0.2 s⁻¹.

On to `C[C@@](O)(CCOP(=O)(O)O)CC(=O)O` [MVAP, phosphomevalonate], for which the “phosphatase activity with the compound as substrate” value (“phosphatase activity” for short) at A. thaliana Nudx1 (AtNudx1) and at A. thaliana Nudx3 (AtNudx3) was “No phosphatase activity was detected” each time. Further, the Km on AtPMK was 12 µM.

Take `Nc1nc2c([nH]c(=O)n2[C@H]2C[C@H](O)[C@@H](COP(=O)(O)OP(=O)(O)OP(=O)(O)O)O2)c(=O)[nH]1` [8-oxo-dGTP]: at A. thaliana Nudx1, the Km worked out at 33 ± 2 µM and the kcat was determined as 4.5 ± 0.1 s⁻¹. Further, the “phosphatase activity” value on A. thaliana Nudx3 (AtNudx3) is recorded as “unable to dephosphorylate”.

Consider `CC(C)=CCC/C(C)=C/CC/C(C)=C/COP(=O)(O)O` [FP, farnesyl phosphate], for which the “phosphatase activity” value at A. thaliana Nudx1 (AtNudx1) and on A. thaliana Nudx3 (AtNudx3) was “No phosphatase activity was detected” in each case.

Take `CC(C)=CCC/C(C)=C/COP(=O)(O)O` [GP, geranyl phosphate]: the “phosphatase activity” value at A. thaliana Nudx1 (AtNudx1) and at A. thaliana Nudx3 (AtNudx3) was “No phosphatase activity was detected” each time.

With `CC(C)=CCC/C(C)=C/COP(=O)(O)OP(=O)(O)O` [GPP, geranyl diphosphate], on A. thaliana Nudx1, the Km turned out to be 8.3 ± 2.5 µM and the turnover number (kcat) was found to be 2.0 ± 0.3 s⁻¹. On A. thaliana Nudx3, the Michaelis constant (Km) amounted to 53 ± 13 µM and the kcat was found to be 2.7 ± 0.3 s⁻¹.

Turning to `CC(C)=CCOP(=O)(O)O` [DMAP, dimethylallyl phosphate], the “phosphatase activity” value at A. thaliana Nudx1 (AtNudx1) and at A. thaliana Nudx3 (AtNudx3) was “No phosphatase activity was detected” in each case. For the same compound, the “inhibition of FPP synthase” value in the test on FPP synthase is listed as “competitively inhibited”.

Regarding `C=C(C)CCOP(=O)(O)OP(=O)(O)O` [IPP, isopentenyl diphosphate], the “fold lower specific activity at pH 6.5 than at the optimal pH of 8.5” value on A. thaliana Nudx1 (AtNudx1, IPP as substrate, 37° C.) was determined as 7 fold. At A. thaliana Nudx1, the Km worked out at 8 ± 0.6 µM and the kcat is 1.11 ± 0.02 s⁻¹. The “fold higher catalytic efficiency” value at A. thaliana Nudx3 (AtNudx3, compared to GPP and FPP as substrates) amounted to 3 fold. On A. thaliana Nudx3, the Km is 36 ± 8 µM and the catalytic constant (kcat) stood at 5.5 ± 0.3 s⁻¹.
